Reference: publication PMC8621456, “New Investigations with Lupane Type A-Ring Azepane Triterpenoids for Antimycobacterial Drug Candidate Design” (International Journal of Molecular Sciences, 2021)
In brackets after ≈: the same amount, converted by molar mass. Several values for one entry are separate records, joined by “and”; a condition that tells them apart may be missing. Equal entries are not always repeated. Where two headings read alike, the source gives them in different places. Marks after values point to notes of the source that are not given here.

Columns and labels:
[1] = tested on: M. abscessus (ATCC 19977); experiment: MIC determination against NTM strains, microbroth dilution; type: cell-based, Mycobacterium abscessus; conditions: Mycobacteroides abscessus
[2] = tested on: M. abscessus (ATCC 19977); experiment: Ex vivo efficacy in infected THP-1 macrophages; type: cell-based, Mycobacterium abscessus; conditions: Mycobacteroides abscessus
[3] = tested on: M. avium complex (ATCC 700,891 MAC 101); experiment: Ex vivo efficacy in infected THP-1 macrophages; type: cell-based; conditions: Mycobacterium avium
[4] = tested on: M. avium (ATCC 25291); experiment: MIC determination against NTM strains, microbroth dilution; type: cell-based; conditions: Mycobacterium avium, ATCC25291; NTM strain
[5] = tested on: M. tuberculosis H37Rv; conditions: compound 1 included as reference; ref [26],[27],[28]; cited from earlier work
[6] = tested on: H37Rv (katG^del); conditions: compound 1 included as reference; ref [26],[27],[28]; cited from earlier work
[7] = tested on: M. abscessus (ATCC 19977); conditions: compound 1 included as reference; ref [26],[27],[28]; cited from earlier work
[8] = tested on: M. avium (ATCC 25291); conditions: compound 1 included as reference; ref [26],[27],[28]; cited from earlier work
[9] = tested on: M. tuberculosis H37Rv; experiment: microbe, parasite or virus in culture; type: cell-based; conditions: Mycobacterium tuberculosis, read-out: MIC (µM) H37Rv
[10] = tested on: M. tuberculosis H37Rv; experiment: Fractional inhibitory concentration (FIC), checkerboard with standard of care drugs; type: cell-based, Mycobacterium tuberculosis
[11] = tested on: MTB H37Rv; conditions: ref [26]; cited from earlier work
[12] = ATCC19977, NTM strain, read-out: MIC (µM) M. abscessus 19977
[13] = ATCC19977, infected THP-1 macrophages, concentration for >90% inhibition, read-out: M. abscessus Ex Vivo Efficacy (>90% Inhibition µM)
[14] = ATCC700, infected THP-1 macrophages, concentration for >90% inhibition, read-out: M. avium Ex Vivo Efficacy (>90% Inhibition µM)
[15] = ATCC19977, THP-1, read-out: M. abscessus Ex Vivo Efficacy (>90% Inhibition µM)
[16] = ATCC700, THP-1, read-out: M. avium Ex Vivo Efficacy (>90% Inhibition µM)
[17] = ATCC19977, read-out: MIC (µM) M. abscessus 19977

Row | Compound | MIC [1, 12] | MIC [4] | MIC [9] | also measured
1 | NCC[C@H](O)C(=O)N[C@@H]1C[C@H](N)[C@@H](O[C@H]2O[C@H](CN)[C@@H](O)[C@H](O)[C@H]2O)[C@H](O)[C@H]1O[C@H]1O[C@H](CO)[C@@H](O)[C@H](N)[C@H]1O [Amikacin, reference compound] | 8 µM (≈ 4.68 µg/mL) |  |  | 
2 | CC[C@H]1OC(=O)[C@H](C)[C@@H](O[C@H]2C[C@@](C)(OC)[C@@H](O)[C@H](C)O2)[C@H](C)[C@@H](O[C@@H]2O[C@H](C)C[C@H](N(C)C)[C@H]2O)[C@](C)(OC)C[C@@H](C)C(=O)[C@H](C)[C@@H](O)[C@]1(C)O [Clarithromycin, reference compound] | 4 µM (≈ 2.99 µg/mL) | 0.125 µM (≈ 0.0935 µg/mL) |  | IC90 [2, 13]: 128 µM; IC90 [3, 14]: 8 µM
3 | C=C(C)[C@@H]1CC[C@]2(CO)CC[C@]3(C)[C@H](CC[C@@H]4[C@@]5(C)CCCNC(C)(C)[C@@H]5CC[C@]43C)[C@@H]12 [Compound 1, azepanobetulin] |  |  |  | IC90 [2, 13]: > 128 µM; IC90 [3, 14]: 8 µM; MIC (µM) H37Rv [5]: 4 * µM; MIC (µM) H37Rv (katG^del) [6]: 2 * µM; MIC (µM) M. abscessus 19977 [7]: 8 * µM; MIC (µM) M. avium 25291 [8]: 0.125 µM and 0.125 * µM
4 | C=C(C)[C@@H]1CC[C@]2(C)CC[C@]3(C)[C@H](CC[C@@H]4[C@@]5(C)CCCNC(C)(C)[C@@H]5CC[C@]43C)[C@@H]12 [Compound 2, azepano-lupeol] | ≤ 4 µM | 1 µM (≈ 0.426 µg/mL) | ≤ 4 µM | IC90 [2, 13]: > 128 µM; IC90 [3, 14]: > 128 µM
5 | C=C(C)[C@@H]1CC[C@]2(CN)CC[C@]3(C)[C@H](CC[C@@H]4[C@@]5(C)CCCNC(C)(C)[C@@H]5CC[C@]43C)[C@@H]12 [Compound 3] |  | 2 µM (≈ 0.882 µg/mL) | 8 µM (≈ 3.53 µg/mL) | IC90 [2, 15]: > 128 µM; FIC interpretation with Isoniazid [10]: 1.0 Additive (key: FIC VALUE ≤ 0.5 (Synergistic); 0.5–1.0 (Additive); 1.0–4.0 (Indifferent); > 4.0 (Antagonistic)); FIC interpretation with Rifampin [10]: 1.0 Additive (key: FIC VALUE ≤ 0.5 (Synergistic); 0.5–1.0 (Additive); 1.0–4.0 (Indifferent); > 4.0 (Antagonistic)); FIC value with Ethambutol [10]: 1.5 Indifferent; FIC value with Isoniazid [10]: 1.0 Additive; FIC value with Rifampin [10]: 1.0 Additive; IC90 [3, 16]: > 128 µM; MIC [1, 17]: 16 µM (≈ 7.05 µg/mL)
6 | C=C(C)[C@@H]1CC[C@]2(COC(=O)c3ccccc3C(=O)O)CC[C@]3(C)[C@H](CC[C@@H]4[C@@]5(C)CCCNC(C)(C)[C@@H]5CC[C@]43C)[C@@H]12 [Compound 4] |  | 4 µM (≈ 2.36 µg/mL) | 16 µM (≈ 9.44 µg/mL) | MIC [1, 17]: 16 µM (≈ 9.44 µg/mL)
7 | C=C(C)[C@@H]1CC[C@]2(COC(=O)c3cccnc3)CC[C@]3(C)[C@H](CC[C@@H]4[C@@]5(C)CCCNC(C)(C)[C@@H]5CC[C@]43C)[C@@H]12 [Compound 5] |  | 1 µM (≈ 0.547 µg/mL) | 8 µM (≈ 4.37 µg/mL) | IC90 [2, 15]: > 128 µM; IC90 [3, 16]: 32 µM; MIC [1, 17]: 16 µM (≈ 8.75 µg/mL)
8 | C=C(C)[C@@H]1CC[C@]2(COS(=O)(=O)c3ccc(C)cc3)CC[C@]3(C)[C@H](CC[C@@H]4[C@@]5(C)CCCNC(C)(C)[C@@H]5CC[C@]43C)[C@@H]12 [Compound 6] |  | 1 µM (≈ 0.596 µg/mL) | 8 µM (≈ 4.77 µg/mL) | MIC [1, 17]: 8 µM (≈ 4.77 µg/mL)
9 | C=C(C)[C@@H]1CC[C@]2(C=NNC(=O)c3ccncc3)CC[C@]3(C)[C@H](CC[C@@H]4[C@@]5(C)CCCNC(C)(C)[C@@H]5CC[C@]43C)[C@@H]12 [Compound 7] | 8 µM (≈ 4.47 µg/mL) | 4 µM (≈ 2.24 µg/mL) |  | IC90 [2, 13]: > 128 µM; FIC value with Rifampin [10]: 1.0 Additive; FIC value with Ethambutol ([10]; combination with Ethambutol): 1.0; FIC value with Isoniazid ([10]; combination with Isoniazid): 0.8; IC90 [3, 14]: 128 µM
10 | C=C(C)[C@@H]1CC[C@]2(C(=O)NC(CO)Cc3ccccc3)CC[C@]3(C)[C@H](CC[C@@H]4[C@@]5(C)CCCNC(C)(C)[C@@H]5CC[C@]43C)[C@@H]12 (stereo partly drawn) [Compound 8] |  | 4 µM (≈ 2.36 µg/mL) | 8 µM (≈ 4.71 µg/mL) | IC90 [2, 15]: > 128 µM; IC90 [3, 16]: 16 µM; MIC [1, 17]: 32 µM (≈ 18.8 µg/mL)
11 | C=C(C)[C@@H]1CC[C@]2(C(=O)N3CCN(C)CC3)CC[C@]3(C)[C@H](CC[C@@H]4[C@@]5(C)CCCNC(C)(C)[C@@H]5CC[C@]43C)[C@@H]12 [Compound 9] |  | 4 µM (≈ 2.15 µg/mL) | ≤ 4 µM | IC90 [2, 15]: > 128 µM; FIC value with Ethambutol [10]: 2.5 Indifferent; FIC value with Rifampin [10]: 1.5 Indifferent; IC90 [3, 16]: > 128 µM; MIC [1, 17]: ≤ 4 µM
12 | C=C(C)[C@@H]1CC[C@]2(C(=O)NC3CCCCC3)CC[C@]3(C)[C@H](CC[C@@H]4[C@@]5(C)CCCNC(C)(C)[C@@H]5CC[C@]43C)[C@@H]12 [Compound 10] |  | 2 µM (≈ 1.07 µg/mL) | ≤ 4 µM | IC90 [2, 15]: > 128 µM; IC90 [3, 16]: 64 µM; MIC [1, 17]: 8 µM (≈ 4.3 µg/mL)
13 | C=C(C)[C@@H]1CC[C@]2(COC(C)=O)CC[C@]3(C)[C@H](CC[C@@H]4[C@@]5(C)CCCN(C(C)=O)C(C)(C)[C@@H]5CC[C@]43C)[C@@H]12 [Compound 11] | 16 µM (≈ 8.41 µg/mL) | 4 µM (≈ 2.1 µg/mL) | 8 µM (≈ 4.21 µg/mL) | 
14 | C=C(C)[C@@H]1CC[C@]2(COC(C)=O)CC[C@]3(C)[C@H](CC[C@@H]4[C@@]5(C)CCCN(C(=O)c6cccnc6)C(C)(C)[C@@H]5CC[C@]43C)[C@@H]12 [Compound 12] | 8 µM (≈ 4.71 µg/mL) | 4 µM (≈ 2.36 µg/mL) | 32 µM (≈ 18.8 µg/mL) | 
15 | CC(=O)[C@@H]1CC[C@]2(COS(=O)(=O)c3ccc(C)cc3)CC[C@]3(C)[C@H](CC[C@@H]4[C@@]5(C)CCCNC(C)(C)[C@@H]5CC[C@]43C)[C@@H]12 [Compound 13] | 16 µM (≈ 9.57 µg/mL) | 2 µM (≈ 1.2 µg/mL) | 32 µM (≈ 19.1 µg/mL) | 
16 | C=C(CBr)[C@@H]1CC[C@]2(COC(C)=O)CC[C@]3(C)[C@H](CC[C@@H]4[C@@]5(C)CCCNC(C)(C)[C@@H]5CC[C@]43C)[C@@H]12 [Compound 14] | > 64 µM | 0.0625 µM (≈ 0.0352 µg/mL) | > 32 µM | 
17 | C=C(CN=[N+]=[N-])[C@@H]1CC[C@]2(COC(C)=O)CC[C@]3(C)[C@H](CC[C@@H]4[C@@]5(C)CCCNC(C)(C)[C@@H]5CC[C@]43C)[C@@H]12 [Compound 15] | > 64 µM | 64 µM (≈ 33.6 µg/mL) | > 32 µM | 
18 | CC1(C)CCC23CCC4(C)C(CCC5C6(C)CCCNC(C)(C)C6CCC54C)C2C1OC3 (stereo not drawn) [Compound 17] | 16 µM (≈ 7.07 µg/mL) | 0.5 µM (≈ 0.221 µg/mL) | 16 µM (≈ 7.07 µg/mL) | IC90 [2, 13]: > 128 µM; IC90 [3, 14]: > 128 µM
19 | CC(C)=C1CCC=C2CC[C@]3(C)[C@H](CC[C@@H]4[C@@]5(C)CCCNC(C)(C)[C@@H]5CC[C@]43C)[C@H]21 [Compound 18] | 32 µM (≈ 13.6 µg/mL) | 4 µM (≈ 1.69 µg/mL) | 16 µM (≈ 6.78 µg/mL) | IC90 [2, 13]: > 128 µM; IC90 [3, 14]: 128 µM
20 | C#CCNC(=O)[C@]12CC[C@@H](C(=C)C)[C@@H]1[C@H]1CC[C@@H]3[C@@]4(C)CCCNC(C)(C)[C@@H]4CC[C@@]3(C)[C@]1(C)CC2 [Compound 20, 17-(Propargyl)-3-deoxo-3a-homo-3a-aza-lup-20(29)-en-carboxamide] | 16 µM (≈ 7.88 µg/mL) | 4 µM (≈ 1.97 µg/mL) | ≤ 4 µM | 
21 | NNC(=O)c1ccncc1 [Isoniazid, reference compound] |  |  | 0.03 µM (≈ 0.00411 µg/mL) | 
22 | COc1c(N2C[C@@H]3CCCN[C@@H]3C2)c(F)cc2c(=O)c(C(=O)O)cn(C3CC3)c12 [Moxifloxacin, reference compound] |  |  | 0.06 µM (≈ 0.0241 µg/mL) | 
23 | O=[N+]([O-])c1cn2c(n1)OC[C@@H](OCc1ccc(OC(F)(F)F)cc1)C2 [Pretomanid, reference compound] |  |  | 0.125 µM (≈ 0.0449 µg/mL) | 
24 | CO[C@H]1/C=C/O[C@@]2(C)Oc3c(C)c(O)c4c(O)c(c(/C=N/N5CCN(C)CC5)c(O)c4c3C2=O)NC(=O)/C(C)=C\C=C\[C@H](C)[C@H](O)[C@@H](C)[C@@H](O)[C@@H](C)[C@H](OC(C)=O)[C@@H]1C [Rifampin, reference compound] |  | 0.0625 µM (≈ 0.0514 µg/mL) | ≤ 0.004 µM | 
25 | A-azepano-28-cinnamoyloxybetulin |  |  |  | MBC against MTB H37Rv [11]: 4 µM; MIC against MTB H37Rv [11]: 2 µM
